Results reported in US20180002319A1, “MACROCYCLIC PICOLINAMIDE COMPOUNDS WITH FUNGICIDAL ACTIVITY” (DOW AGROSCIENCES LLC, priority 2014, published 2018).
Where two headings read alike, the source gives them in different places.

Assays:
Format in all cases: in vivo
[1] = system: Leptosphaeria nodorum; experiment: Wheat Glume Blotch (LEPTNO) fungicidal activity; conditions: Parastagonospora nodorum, 24 h, 1DP (1 Day Protectant), read-out: LEPTNO Disease Control
Procedure: Technical grades of materials were dissolved in acetone, which were then mixed with nine volumes of H2O containing 110 ppm Triton X-100. The fungicide solutions were applied onto wheat seedlings using an automated booth sprayer to run-off. All sprayed plants were allowed to air dry prior to further handling. All fungicides were evaluated using the aforementioned method for their activity vs. all target diseases, unless stated otherwise. Wheat leaf blotch and brown rust activity were also evaluated using track spray applications, in which case the fungicides were formulated as EC formulations, containing 0.1% Trycol 5941 in the spray solutions. Wheat plants (variety Yuma) were grown from seed in a greenhouse in 50% mineral soil/50% soil-less Metro mix until the first leaf was fully emerged, with 7-10 seedlings per pot. These plants were inoculated with an aqueous spore suspension of Zymoseptoria tritici either prior to or after fungicide treatments. After inoculation the plants were kept in 100% relative humidity (one day in a dark dew chamber followed by two to three days in a lighted dew chamber at 20° C.) to permit spores to germinate and infect the leaf. The plants were then transferred to a greenhouse set at 20° C. for disease to develop. When disease symptoms were fully expressed on the 1st leaves of untreated plants, infection levels were assessed on a scale of 0 to 100 percent disease severity. Percent disease control was calculated using the ratio of disease severity on treated plants relative to untreated plants. Example C: Evaluation of Fungicidal Activity: Wheat Glume Blotch (Leptosphaeria nodorum; Bayer Code […]) Wheat plants (variety Yuma) were grown from seed in a greenhouse in 50% mineral soil/50% soil-less Metro mix until the first leaf was fully emerged, with 7-10 seedlings per pot. These plants were inoculated with an aqueous spore suspension of Leptosphaeria nodorum 24 hr after fungicide treatments. After inoculation the plants were kept in 100% relative humidity (one day in a dark dew chamber followed by two days in a lighted dew chamber at 20° C.) to permit spores to germinate and infect the leaf. The plants were then transferred to a greenhouse set at 20° C. for disease to develop. Fungicide formulation, application and disease assessment followed the procedures as described in the Example A.

[2] = system: Alternaria solani; experiment: Tomato Early Blight (ALTESO) fungicidal activity; conditions: 24 h, 1DP (1 Day Protectant), read-out: ALTESO Disease Control
Procedure: Technical grades of materials were dissolved in acetone, which were then mixed with nine volumes of H2O containing 110 ppm Triton X-100. The fungicide solutions were applied onto wheat seedlings using an automated booth sprayer to run-off. All sprayed plants were allowed to air dry prior to further handling. All fungicides were evaluated using the aforementioned method for their activity vs. all target diseases, unless stated otherwise. Wheat leaf blotch and brown rust activity were also evaluated using track spray applications, in which case the fungicides were formulated as EC formulations, containing 0.1% Trycol 5941 in the spray solutions. Wheat plants (variety Yuma) were grown from seed in a greenhouse in 50% mineral soil/50% soil-less Metro mix until the first leaf was fully emerged, with 7-10 seedlings per pot. These plants were inoculated with an aqueous spore suspension of Zymoseptoria tritici either prior to or after fungicide treatments. After inoculation the plants were kept in 100% relative humidity (one day in a dark dew chamber followed by two to three days in a lighted dew chamber at 20° C.) to permit spores to germinate and infect the leaf. The plants were then transferred to a greenhouse set at 20° C. for disease to develop. When disease symptoms were fully expressed on the 1st leaves of untreated plants, infection levels were assessed on a scale of 0 to 100 percent disease severity. Percent disease control was calculated using the ratio of disease severity on treated plants relative to untreated plants. Example M: Evaluation of Fungicidal Activity: Tomato Early Blight (Alternaria solani; Bayer Code […]) Tomato plants (variety Outdoor Girl) were propagated in soil-less Metro mix, with each pot having one plant, and used when 12 to 14 days old. Test plants were inoculated with an aqueous spore suspension of Alternaria solani 24 hr after fungicide treatments. After inoculation the plants were kept in 100% relative humidity (one day in a dark dew chamber followed by two to three days in a lighted dew chamber at 20° C.) to permit spores to germinate and infect the leaf. The plants were then transferred to a growth room at 22° C. for disease to develop. Fungicide formulation, application and disease assessment on the sprayed leaves followed the procedures as described in the Example A.

[3] = system: Zymoseptoria tritici; experiment: Leaf Blotch of Wheat (SEPTTR) fungicidal activity; conditions: wheat leaf blotch; for pest or weed control at 100 ppm: High Volume application; for pest or weed control at 121.5 g/ha: Low Volume application, 121.5 g/H
Procedure, shortened: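 Wheat seedlings (Yuma, first leaf emerged) were sprayed to run-off with compound in acetone/water containing Triton X-100 and inoculated with Z. tritici spores before or after treatment. Percent disease control comes from 0–100% severity on treated versus untreated plants.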

[4] = 24 h, 1 day protectant, read-out: SEPTTR disease control, 1DP (1 Day Protectant)
[5] = 72 h, 3 day curative, read-out: SEPTTR disease control, 3DC (3 Day Curative)

Structure (SMILES) | pest or weed control at 100 ppm [1] [%] | pest or weed control at 100 ppm [2] [%] | pest or weed control at 100 ppm [3, 4] [%] | pest or weed control at 121.5 g/ha [3, 4] [%] | pest or weed control at 100 ppm [3, 5] [%] | pest or weed control at 121.5 g/ha [3, 5] [%]
CCCCO[C@H]1CCOC[C@H](NC(=O)c2nccc(OC)c2OCOC(C)=O)C(=O)O[C@@H](C)[C@@H]1OCc1ccccc1 [Compound 2] | > 80 | < 80 | > 80 | < 80 | < 80 | –
CCCCO[C@H]1CCOC[C@H](NC(=O)c2nccc(OC)c2OCOC(C)=O)C(=O)O[C@@H](C)[C@@H]1OC(=O)C(C)C [Compound 3] | > 80 | > 80 | > 80 | – | < 80 | –
CCCCO[C@H]1CCOC[C@H](NC(=O)c2nccc(OC)c2OCOC(C)=O)C(=O)O[C@@H](C)[C@@H]1OC(=O)c1ccccc1 [Compound 4] | > 80 | > 80 | > 80 | < 80 | < 80 | –
CCCCO[C@H]1CCOC[C@H](NC(=O)c2nccc(OC)c2OCOC(C)=O)C(=O)O[C@@H](C)[C@@H]1OC(=O)C1CC1 [Compound 5] | > 80 | < 80 | > 80 | – | < 80 | –
COc1ccnc(C(=O)N[C@H]2COCC[C@@H](OCC(C)C)[C@@H](OCC(C)C)[C@H](C)OC2=O)c1OCOC(C)=O [Compound 6] | > 80 | < 80 | > 80 | – | – | –
CCCCCO[C@H]1[C@H](C)OC(=O)[C@@H](NC(=O)c2nccc(OC)c2OCOC(C)=O)CCCC[C@@H]1Oc1ccccc1 [Compound 17] | – | > 80 | > 80 | – | > 80 | –
CCCO[C@H]1[C@H](C)OC(=O)[C@@H](NC(=O)c2nccc(OC)c2OCOC(C)=O)CCCC[C@@H]1Oc1ccccc1 [Compound 18] | – | > 80 | > 80 | – | > 80 | –
COc1ccnc(C(=O)N[C@H]2CCCC[C@H](Oc3ccccc3)[C@@H](Oc3ccccc3)[C@H](C)OC2=O)c1OCOC(C)=O [Compound 19] | – | > 80 | > 80 | > 80 | > 80 | > 80
COc1ccnc(C(=O)N[C@H]2COCC[C@H](Cc3ccccc3)[C@@H](OCC(C)C)[C@H](C)OC2=O)c1OCOC(C)=O [Compound 20] | > 80 | > 80 | – | < 80 | – | > 80
COc1ccnc(C(=O)N[C@H]2COCC[C@H](Cc3ccccc3)[C@@H](OCC(C)C)[C@H](C)OC2=O)c1OC(C)=O [Compound 21] | > 80 | > 80 | – | < 80 | – | > 80
COc1ccnc(C(=O)N[C@H]2CCOC[C@H](Oc3ccccc3)[C@@H](Oc3ccccc3)[C@H](C)OC2=O)c1OCOC(C)=O [Compound 37] | > 80 | – | – | > 80 | – | > 80
